Literature values in patent publication US20170306503A1, “SYNTHETIC ACID COMPOSITIONS ALTERNATIVES TO CONVENTIONAL ACIDS IN THE OIL AND GAS INDUSTRY” (FLUID ENERGY GROUP LTD, priority 2014, published 2017).

Settings: gas exposure, death in 2-3 minutes

## Cl [Hydrogen chloride gas, Hydrogen chloride]
  level at which death can occur: 1300-2000 PPM
